In US10227349B2, “Pyrazolo[1,5-a]pyrimidine compound” (Eisai R&D Management Co., Ltd., priority 2016, dated 2019):

What was measured:
PAR2 [1] = biological target: T1, PAR2 (Homo sapiens, UniProt P55085); assay: Intracellular calcium concentration measurement (trypsin-induced calcium elevation, FDSS6000); assay type: cell-based; details: HEK293 cells, trypsin 5 U/mL as agonist, test compound added 30 min before measurement; read-out: Inhibitory activity on intracellular calcium elevation (IC50 (nM))
T1 construct: Human embryonic kidney cell line HEK293 cells cultured using DMEM culture medium; endogenous in cells; host or cells: HEK293
T1 sequence (P55085 26-397): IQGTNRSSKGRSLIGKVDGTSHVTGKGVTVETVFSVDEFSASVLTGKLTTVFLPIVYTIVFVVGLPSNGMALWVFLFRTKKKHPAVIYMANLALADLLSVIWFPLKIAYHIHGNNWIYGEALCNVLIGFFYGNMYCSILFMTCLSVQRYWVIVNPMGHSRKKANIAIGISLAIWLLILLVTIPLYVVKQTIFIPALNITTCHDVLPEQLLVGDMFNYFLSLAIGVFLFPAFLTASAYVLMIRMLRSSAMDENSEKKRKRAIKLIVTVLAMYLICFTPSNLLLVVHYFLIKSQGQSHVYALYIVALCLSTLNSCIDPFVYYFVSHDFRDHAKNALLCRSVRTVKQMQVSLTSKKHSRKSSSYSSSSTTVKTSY
Text: In the present specification, examples of the measurement method for the PAR2 inhibitory activity include measurement method for a concentration elevation of intracellular calcium; measurement method for a production increase of intracellular inositol trisphosphate; measurement method for an increase in intracellular protein phosphorylation by protein kinase C and MAP kinase; and measurement method for a production amount or a release amount of inflammation-related physiologically active substances such as cytokine, chemokine, prostaglandin and nitric monoxide. Examples of the measurement method for an elevation of intracellular calcium concentration include a method wherein a calcium-binding fluorescent probe is allowed to be incorporated in advance into a cultured cell line or an animal-derived isolated cell having PAR2, or a cell in which PAR2 is artificially expressed, a protease having the PAR2 activity function such as trypsin or a PAR2 agonist (synthetic peptides such as SLIGKV-NH2 (SEQ ID NO: 1) and SLIGRL-NH2 (SEQ ID NO: 2) is added to activate PAR2 whereby fluctuating intracellular calcium concentrations are detected as changes in the fluorescent signal. Alternatively, it is also possible to measure an intracellular calcium concentration by determining the quantity of a fluorescence intensity produced in proportion to the calcium concentration using a calcium-binding luminescent protein overexpressing cell line such as Aequorin. Specifically, examples include the methods described in Test Examples of the present specification.
Human embryonic kidney cell line HEK293 cells cultured using DMEM culture medium (Invitrogen) with 3% fetal bovine serum (3% FBS)-added was prepared to have a concentration of 2×10^5 cells/mL, and plated in a type I collagen-coated 384-well black plate (clear bottom) (Greiner) so as to be 25 μL/well and cultured in a CO2 incubator overnight. FLIPR Calcium Assay Kit (Molecular Devices) prepared with Hanks-20 mM Hepes buffer (pH 7.4) was added to the cells so as to be 25 μL/well and cultured in the CO2 incubator for 1 hour. Trypsin (SIGMA-ALDRICH, catalog number: T8816, Enzyme Commission Number 3.4.21.4) prepared so as to be 5 U/mL as final concentration (BAEE unit) with Hanks-20 mM Hepes buffer (pH 7.4) was added to a 384-well deep well polypropylene plate (Greiner) to be an agonist reagent plate. Thirty minutes before the measurement using FDSS6000 (Hamamatsu Photonics K.K.), a test compound prepared with Hanks-20 mM Hepes buffer (pH 7.4) was added to the cell so as to be 8 μL/well. The cell plate to which the test compound was added and the reagent plate were set on FDSS6000, 22 μL/well of the agonist solution was added from the reagent plate, and the change in intracellular calcium concentration was measured with a CCD camera. The measurement was carried out at 37° C. for 120 seconds and the addition of reagent from the reagent plate to the cell plate was carried out using a built-in 384-well automatic dispenser of FDSS6000.
Note that Reference Example 1 in Table 3 is the compound represented by formula (XIX) synthesized in the above Reference Example 1 (hereinafter, also referred to as Compound (XIX)). Additionally, the “Comparative Compound” in Table 3 is the compound described in Patent Literature 4 represented by the following formula (XX) (I-343; hereinafter, also referred to as Compound (XX)).

[2] = system: DNFB-induced dermatitis in BALB/c male mice; assay: Mouse dermatitis model (DNFB-induced auricle swelling); assay type: in vivo; details: 0.3 mg/mL solution 10 mL/kg orally 8 hours after DNFB induction, auricle thickness on following day
Procedure: The test compound was added to a 0.5% carboxymethyl cellulose solution so as to have the final concentration of 0.3 mg/mL, thereby preparing an administration solution containing the test compound. Hapten used was 2,4-dinitrofluorobenzene (DNFB, Wako Pure Chemical Industries).
Twenty-five (25) μL of a solution of DNFB diluted to 0.4% with a mixed solvent of acetone and an olive oil in a volume ratio of 2:1 was applied twice to the shaved abdominal region of BALB/c male mice (Charles River), 6-10 weeks of age, over a period of 2 days to create the sensitization. Four days after the sensitization, on the first day, 20 μL of a solution of DNFB diluted to 0.2% with a mixed solvent of acetone and an olive oil in a volume ratio of 2:1 was applied to the right auricle of the mouse to induce dermatitis. Eight hours after the induction of dermatitis, the administration solution containing the test compound (10 mL/kg) was orally administered to the mouse. On the day following the induction of dermatitis, the right auricle thickness of the mouse was measured using a thickness gauge to evaluate the action of the test compound.
Note that Reference Example 1 in Table 5 is Compound (XIX).

PAR2 [3] = biological target: T2, PAR2 (Mus musculus, UniProt P55086); assay: Measurement of PAR2 agonist (SLIGRL-NH2)-induced salivation in mouse; assay type: in vivo; details: C57BL/6J male mice, 0.3 mg/mL solution 10 mL/kg orally, 60 min before SLIGRL-NH2 i.p., saliva collected 10 min
T2 construct: orally administered to C57BL/6J male mice (Charles River), 6-10 weeks of age; tissue Charles River; host or cells: Living C57BL/6J male mice (in vivo; saliva secretion)
T2 sequence (P55086 26-399): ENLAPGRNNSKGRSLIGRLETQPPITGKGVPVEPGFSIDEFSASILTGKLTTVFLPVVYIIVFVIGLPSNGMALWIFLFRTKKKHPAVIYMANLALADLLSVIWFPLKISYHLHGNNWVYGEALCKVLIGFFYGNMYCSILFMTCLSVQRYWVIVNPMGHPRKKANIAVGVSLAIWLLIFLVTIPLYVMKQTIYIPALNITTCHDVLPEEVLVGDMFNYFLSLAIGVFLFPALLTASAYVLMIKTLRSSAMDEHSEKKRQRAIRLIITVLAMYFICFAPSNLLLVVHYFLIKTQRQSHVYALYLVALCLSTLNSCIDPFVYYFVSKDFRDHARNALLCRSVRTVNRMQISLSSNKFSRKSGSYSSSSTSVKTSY
Procedure: The test compound was added to a 0.5% carboxymethyl cellulose solution to which 2% DMSO was added, so as to have the final concentration of 0.3 mg/mL, thereby preparing an administration solution containing the test compound. The administration solution containing the test compound (10 mL/kg) was orally administered to C57BL/6J male mice (Charles River), 6-10 weeks of age, using an oral sonde and a syringe. Forty-five minutes after the administration of the test compound, 10 mL/kg of a 20% (w/v) urethane solution was intraperitoneal administered to the mice which were then anesthetized. Sixty minutes after the administration of the test compound, 10 mL/kg of a 0.1 mg/mL SLIGRL-NH2 (SEQ ID NO: 2) solution was intraperitoneally administered as the PAR2 agonist and a cotton ball was immediately placed in the oral cavity of the mouse to collect the saliva. Ten minutes after the administration of the PAR2 agonist, the cotton ball was removed and weighed to measure the amount of saliva secreted.
Note that Reference Example 1 in Table 4 is Compound (XIX). Additionally, Comparative Compound in Table 4 is Compound (XX).

SMILES	IC50 (PAR2 [1]) [nM]	Inhibitory activity on auricle swelling (%) [2] [%]	Inhibitory activity on the PAR2-dependent saliva secretion (%) (PAR2 [3])
CCCN(c1cc(-c2cc(F)c(Cl)c(F)c2)nc2cc(C(=O)N3C[C@@H]4[C@@H](CC(=O)O)[C@@H]4C3)nn12)C(C)C [Example 15, 2-((1α,5α,6α)-3-(5-(4-chloro-3,5-difluorophenyl)-7-(isopropyl(propyl)amino)pyrazolo[1,5-a]pyrimidine-2-carbonyl)-3-azabicyclo[3.1.0]hexan-6-yl)acetic acid]	12.8	17.4	–
COc1cccc(F)c1N(C)c1cc(-c2cc(F)c(F)c(F)c2)nc2cc(C(=O)N(C)[C@H](C)CC(=O)O)nn12 [Example 7, (R)-3-(7-((2-fluoro-6-methoxyphenyl)(methyl)amino)-N-methyl-5-(3,4,5-trifluorophenyl)pyrazolo[1,5-a]pyrimidine-2-carboxamide)butanoic acid]	1.74	61.6	96.0
